Literature values in US20100035939A1, “PENETRATING CARRIER, ANTI-FUNGAL COMPOSITION USING THE SAME AND METHOD FOR TREATMENT OF DERMATOPHYTES” (priority 2004, published 2010).

Test system: fungal toenail

- patients with a serious reaction to the drug (in vivo, po): One in 500
Structure (SMILES): CN(C/C=C/C#CC(C)(C)C)Cc1cccc2ccccc12 [terbinafine]
- reoccurrence of the fungal toenail (oral administration, in the first year): 15%
